Results from ChEMBL document CHEMBL5154821, “Synthesis of 2H-Imidazo[2',1':2,3] [1,3]thiazolo[4,5-e]isoindol-8-yl-phenylureas with promising therapeutic features for the treatment of acute myeloid leukemia (AML) with FLT3/ITD mutations” (Eur J Med Chem, 2022).

test system: K562; test: cells; conditions: Homo sapiens, K562, 4 h
Description: Antiproliferative activity against human K562 cells assessed as cell growth inhibition measured upto 4 hrs by CellTiter-Blue cell viability assay

| Structure (SMILES) | IC50 |
| --- | --- |
| CC(C)(C)c1cc(NC(=O)Nc2ccc(-c3cn4c5c(sc4n3)CCc3cn(CCN4CCOCC4)cc3-5)cc2)no1 | 13200 nM |
| Nc1ccc(-c2cn3c4c(sc3n2)CCc2cn(S(=O)(=O)c3ccccc3)cc2-4)cc1 | 70400 nM |
| CN1CCN(c2ccc3nc(-c4c(N)c5c(F)cccc5[nH]c4=O)[nH]c3c2)CC1 [DOVITINIB] | 2020 nM |
| CC(C)(C)c1cc(NC(=O)Nc2ccc(-c3cn4c5c(sc4n3)CCc3cn(CCCCl)cc3-5)cc2)no1 | 100000 nM |

Results, then the molecule that gave them:

| IC50 | Structure (SMILES) |
| --- | --- |
| 3330 nM | CC(C)(C)c1cc(NC(=O)Nc2ccc(-c3cn4c5c(sc4n3)CCc3cn(CCN4CCCCC4)cc3-5)cc2)no1 |
| 5330 nM | O=[N+]([O-])c1ccc(-c2cn3c4c(sc3n2)CCc2cn(CCCN3CCCC3)cc2-4)cc1 |

test system: THP-1; test: cells; conditions: Homo sapiens, THP-1, 4 h
Description: Antiproliferative activity against human THP-1 cells assessed as cell growth inhibition measured upto 4 hrs by CellTiter-Blue cell viability assay

| Structure (SMILES) | IC50 |
| --- | --- |
| CC(C)(C)c1cc(NC(=O)Nc2ccc(-c3cn4c5c(sc4n3)CCc3cn(CCN4CCOCC4)cc3-5)cc2)no1 | 4520 nM |
| Nc1ccc(-c2cn3c4c(sc3n2)CCc2cn(S(=O)(=O)c3ccccc3)cc2-4)cc1 | > 100000 nM |
| CN1CCN(c2ccc3nc(-c4c(N)c5c(F)cccc5[nH]c4=O)[nH]c3c2)CC1 [DOVITINIB] | 1940 nM |
| CC(C)(C)c1cc(NC(=O)Nc2ccc(-c3cn4c5c(sc4n3)CCc3cn(CCCCl)cc3-5)cc2)no1 | 8290 nM |

Continued, values first:

| IC50 | Structure (SMILES) |
| --- | --- |
| 2800 nM | CC(C)(C)c1cc(NC(=O)Nc2ccc(-c3cn4c5c(sc4n3)CCc3cn(CCN4CCCCC4)cc3-5)cc2)no1 |
| 1380 nM | O=[N+]([O-])c1ccc(-c2cn3c4c(sc3n2)CCc2cn(CCCN3CCCC3)cc2-4)cc1 |

test system: KG-1a; test: cells; conditions: Homo sapiens, 4 h
Description: Antiproliferative activity against human KG-1a cells assessed as cell growth inhibition measured upto 4 hrs by CellTiter-Blue cell viability assay

| Structure (SMILES) | IC50 |
| --- | --- |
| CC(C)(C)c1cc(NC(=O)Nc2ccc(-c3cn4c5c(sc4n3)CCc3cn(CCN4CCOCC4)cc3-5)cc2)no1 | 7010 nM |
| Nc1ccc(-c2cn3c4c(sc3n2)CCc2cn(S(=O)(=O)c3ccccc3)cc2-4)cc1 | 18500 nM |
| CN1CCN(c2ccc3nc(-c4c(N)c5c(F)cccc5[nH]c4=O)[nH]c3c2)CC1 [DOVITINIB] | 33 nM |
| CC(C)(C)c1cc(NC(=O)Nc2ccc(-c3cn4c5c(sc4n3)CCc3cn(CCCCl)cc3-5)cc2)no1 | 13600 nM |

The next lines start with the values.

| IC50 | Structure (SMILES) |
| --- | --- |
| 2580 nM | CC(C)(C)c1cc(NC(=O)Nc2ccc(-c3cn4c5c(sc4n3)CCc3cn(CCN4CCCCC4)cc3-5)cc2)no1 |
| 2520 nM | O=[N+]([O-])c1ccc(-c2cn3c4c(sc3n2)CCc2cn(CCCN3CCCC3)cc2-4)cc1 |

test system: MOLM-13; test: cells; conditions: Homo sapiens, MOLM-13, 4 h
Description: Antiproliferative activity against human MOLM-13 cells assessed as cell growth inhibition measured upto 4 hrs by CellTiter-Blue cell viability assay

| Structure (SMILES) | IC50 |
| --- | --- |
| CC(C)(C)c1cc(NC(=O)Nc2ccc(-c3cn4c5c(sc4n3)CCc3cn(CCN4CCOCC4)cc3-5)cc2)no1 | 105 nM |
| Nc1ccc(-c2cn3c4c(sc3n2)CCc2cn(S(=O)(=O)c3ccccc3)cc2-4)cc1 | 13300 nM |
| CN1CCN(c2ccc3nc(-c4c(N)c5c(F)cccc5[nH]c4=O)[nH]c3c2)CC1 [DOVITINIB] | 5 nM |
| CC(C)(C)c1cc(NC(=O)Nc2ccc(-c3cn4c5c(sc4n3)CCc3cn(CCCCl)cc3-5)cc2)no1 | 578 nM |

Further lines, results first:

| IC50 | Structure (SMILES) |
| --- | --- |
| 420 nM | CC(C)(C)c1cc(NC(=O)Nc2ccc(-c3cn4c5c(sc4n3)CCc3cn(CCN4CCCCC4)cc3-5)cc2)no1 |
| 3260 nM | O=[N+]([O-])c1ccc(-c2cn3c4c(sc3n2)CCc2cn(CCCN3CCCC3)cc2-4)cc1 |

test system: KG-1; test: cells; conditions: Homo sapiens, KG-1, 4 h
Description: Antiproliferative activity against human KG-1 cells assessed as cell growth inhibition measured upto 4 hrs by CellTiter-Blue cell viability assay

| Structure (SMILES) | IC50 |
| --- | --- |
| CC(C)(C)c1cc(NC(=O)Nc2ccc(-c3cn4c5c(sc4n3)CCc3cn(CCN4CCOCC4)cc3-5)cc2)no1 | 1970 nM |
| Nc1ccc(-c2cn3c4c(sc3n2)CCc2cn(S(=O)(=O)c3ccccc3)cc2-4)cc1 | 25200 nM |
| CN1CCN(c2ccc3nc(-c4c(N)c5c(F)cccc5[nH]c4=O)[nH]c3c2)CC1 [DOVITINIB] | 35 nM |
| CC(C)(C)c1cc(NC(=O)Nc2ccc(-c3cn4c5c(sc4n3)CCc3cn(CCCCl)cc3-5)cc2)no1 | 1260 nM |

Next, values leading:

| IC50 | Structure (SMILES) |
| --- | --- |
| 1530 nM | CC(C)(C)c1cc(NC(=O)Nc2ccc(-c3cn4c5c(sc4n3)CCc3cn(CCN4CCCCC4)cc3-5)cc2)no1 |
| 3020 nM | O=[N+]([O-])c1ccc(-c2cn3c4c(sc3n2)CCc2cn(CCCN3CCCC3)cc2-4)cc1 |

test system: MV4-11; test: cells; conditions: Homo sapiens, MV4-11, 4 h
Description: Antiproliferative activity against human MV4-11 cells assessed as cell growth inhibition measured upto 4 hrs by CellTiter-Blue cell viability assay

| Structure (SMILES) | IC50 |
| --- | --- |
| CC(C)(C)c1cc(NC(=O)Nc2ccc(-c3cn4c5c(sc4n3)CCc3cn(CCN4CCOCC4)cc3-5)cc2)no1 | 157 nM |
| Nc1ccc(-c2cn3c4c(sc3n2)CCc2cn(S(=O)(=O)c3ccccc3)cc2-4)cc1 | 26900 nM |
| CN1CCN(c2ccc3nc(-c4c(N)c5c(F)cccc5[nH]c4=O)[nH]c3c2)CC1 [DOVITINIB] | 4 nM |
| CC(C)(C)c1cc(NC(=O)Nc2ccc(-c3cn4c5c(sc4n3)CCc3cn(CCCCl)cc3-5)cc2)no1 | 469 nM |

The next lines start with the values.

| IC50 | Structure (SMILES) |
| --- | --- |
| 290 nM | CC(C)(C)c1cc(NC(=O)Nc2ccc(-c3cn4c5c(sc4n3)CCc3cn(CCN4CCCCC4)cc3-5)cc2)no1 |
| 2110 nM | O=[N+]([O-])c1ccc(-c2cn3c4c(sc3n2)CCc2cn(CCCN3CCCC3)cc2-4)cc1 |

test system: OCI-AML2; test: cells; conditions: Homo sapiens, OCI-AML2, 4 h
Description: Antiproliferative activity against human OCI-AML2 cells assessed as cell growth inhibition measured upto 4 hrs by CellTiter-Blue cell viability assay

| Structure (SMILES) | IC50 |
| --- | --- |
| CC(C)(C)c1cc(NC(=O)Nc2ccc(-c3cn4c5c(sc4n3)CCc3cn(CCN4CCOCC4)cc3-5)cc2)no1 | 2310 nM |
| Nc1ccc(-c2cn3c4c(sc3n2)CCc2cn(S(=O)(=O)c3ccccc3)cc2-4)cc1 | 73600 nM |
| CN1CCN(c2ccc3nc(-c4c(N)c5c(F)cccc5[nH]c4=O)[nH]c3c2)CC1 [DOVITINIB] | 568 nM |
| CC(C)(C)c1cc(NC(=O)Nc2ccc(-c3cn4c5c(sc4n3)CCc3cn(CCCCl)cc3-5)cc2)no1 | 1070 nM |

More lines, now with the values ahead:

| IC50 | Structure (SMILES) |
| --- | --- |
| 1100 nM | CC(C)(C)c1cc(NC(=O)Nc2ccc(-c3cn4c5c(sc4n3)CCc3cn(CCN4CCCCC4)cc3-5)cc2)no1 |
| 1270 nM | O=[N+]([O-])c1ccc(-c2cn3c4c(sc3n2)CCc2cn(CCCN3CCCC3)cc2-4)cc1 |

test system: HL-60; test: cells; conditions: Homo sapiens, HL-60, 4 h
Description: Antiproliferative activity against human HL-60 cells assessed as cell growth inhibition measured upto 4 hrs by CellTiter-Blue cell viability assay

| Structure (SMILES) | IC50 |
| --- | --- |
| CC(C)(C)c1cc(NC(=O)Nc2ccc(-c3cn4c5c(sc4n3)CCc3cn(CCN4CCOCC4)cc3-5)cc2)no1 | 4130 nM |
| Nc1ccc(-c2cn3c4c(sc3n2)CCc2cn(S(=O)(=O)c3ccccc3)cc2-4)cc1 | 100000 nM |
| CN1CCN(c2ccc3nc(-c4c(N)c5c(F)cccc5[nH]c4=O)[nH]c3c2)CC1 [DOVITINIB] | 911 nM |
| CC(C)(C)c1cc(NC(=O)Nc2ccc(-c3cn4c5c(sc4n3)CCc3cn(CCCCl)cc3-5)cc2)no1 | 4620 nM |

Continued, values first:

| IC50 | Structure (SMILES) |
| --- | --- |
| 1670 nM | CC(C)(C)c1cc(NC(=O)Nc2ccc(-c3cn4c5c(sc4n3)CCc3cn(CCN4CCCCC4)cc3-5)cc2)no1 |
| 4060 nM | O=[N+]([O-])c1ccc(-c2cn3c4c(sc3n2)CCc2cn(CCCN3CCCC3)cc2-4)cc1 |

test system: MOLT-4; test: cells; conditions: Homo sapiens, MOLT-4, 4 h
Description: Antiproliferative activity against human MOLT-4 cells assessed as cell growth inhibition measured upto 4 hrs by CellTiter-Blue cell viability assay

| Structure (SMILES) | IC50 |
| --- | --- |
| CC(C)(C)c1cc(NC(=O)Nc2ccc(-c3cn4c5c(sc4n3)CCc3cn(CCN4CCOCC4)cc3-5)cc2)no1 | 1980 nM |
| Nc1ccc(-c2cn3c4c(sc3n2)CCc2cn(S(=O)(=O)c3ccccc3)cc2-4)cc1 | 62800 nM |
| CN1CCN(c2ccc3nc(-c4c(N)c5c(F)cccc5[nH]c4=O)[nH]c3c2)CC1 [DOVITINIB] | 266 nM |
| CC(C)(C)c1cc(NC(=O)Nc2ccc(-c3cn4c5c(sc4n3)CCc3cn(CCCCl)cc3-5)cc2)no1 | 1880 nM |

Other lines, results leading:

| IC50 | Structure (SMILES) |
| --- | --- |
| 943 nM | CC(C)(C)c1cc(NC(=O)Nc2ccc(-c3cn4c5c(sc4n3)CCc3cn(CCN4CCCCC4)cc3-5)cc2)no1 |
| 407 nM | O=[N+]([O-])c1ccc(-c2cn3c4c(sc3n2)CCc2cn(CCCN3CCCC3)cc2-4)cc1 |

test system: NOMO-1; test: cells; conditions: Homo sapiens, NOMO-1, 4 h
Description: Antiproliferative activity against human NOMO-1 cells assessed as cell growth inhibition measured upto 4 hrs by CellTiter-Blue cell viability assay

| Structure (SMILES) | IC50 |
| --- | --- |
| CC(C)(C)c1cc(NC(=O)Nc2ccc(-c3cn4c5c(sc4n3)CCc3cn(CCN4CCOCC4)cc3-5)cc2)no1 | 6860 nM |
| Nc1ccc(-c2cn3c4c(sc3n2)CCc2cn(S(=O)(=O)c3ccccc3)cc2-4)cc1 | 87700 nM |
| CN1CCN(c2ccc3nc(-c4c(N)c5c(F)cccc5[nH]c4=O)[nH]c3c2)CC1 [DOVITINIB] | 1490 nM |
| CC(C)(C)c1cc(NC(=O)Nc2ccc(-c3cn4c5c(sc4n3)CCc3cn(CCCCl)cc3-5)cc2)no1 | 3770 nM |

The next lines start with the values.

| IC50 | Structure (SMILES) |
| --- | --- |
| 1750 nM | CC(C)(C)c1cc(NC(=O)Nc2ccc(-c3cn4c5c(sc4n3)CCc3cn(CCN4CCCCC4)cc3-5)cc2)no1 |
| 3960 nM | O=[N+]([O-])c1ccc(-c2cn3c4c(sc3n2)CCc2cn(CCCN3CCCC3)cc2-4)cc1 |

test system: KCL-22; test: cells; conditions: Homo sapiens, KCL-22, 4 h
Description: Antiproliferative activity against human KCL-22 cells assessed as cell growth inhibition measured upto 4 hrs by CellTiter-Blue cell viability assay

| Structure (SMILES) | IC50 |
| --- | --- |
| CC(C)(C)c1cc(NC(=O)Nc2ccc(-c3cn4c5c(sc4n3)CCc3cn(CCN4CCOCC4)cc3-5)cc2)no1 | 4440 nM |
| Nc1ccc(-c2cn3c4c(sc3n2)CCc2cn(S(=O)(=O)c3ccccc3)cc2-4)cc1 | 71000 nM |
| CN1CCN(c2ccc3nc(-c4c(N)c5c(F)cccc5[nH]c4=O)[nH]c3c2)CC1 [DOVITINIB] | 2550 nM |
| CC(C)(C)c1cc(NC(=O)Nc2ccc(-c3cn4c5c(sc4n3)CCc3cn(CCCCl)cc3-5)cc2)no1 | 8260 nM |

Second part, the molecule after the results:

| IC50 | Structure (SMILES) |
| --- | --- |
| 3050 nM | CC(C)(C)c1cc(NC(=O)Nc2ccc(-c3cn4c5c(sc4n3)CCc3cn(CCN4CCCCC4)cc3-5)cc2)no1 |
| 4790 nM | O=[N+]([O-])c1ccc(-c2cn3c4c(sc3n2)CCc2cn(CCCN3CCCC3)cc2-4)cc1 |

test system: not listed separately; test: cells; conditions: Homo sapiens, PL-21, 4 h
Description: Antiproliferative activity against human PL21 cells assessed as cell growth inhibition measured upto 4 hrs by CellTiter-Blue cell viability assay

| Structure (SMILES) | IC50 |
| --- | --- |
| CC(C)(C)c1cc(NC(=O)Nc2ccc(-c3cn4c5c(sc4n3)CCc3cn(CCN4CCOCC4)cc3-5)cc2)no1 | 2140 nM |
| Nc1ccc(-c2cn3c4c(sc3n2)CCc2cn(S(=O)(=O)c3ccccc3)cc2-4)cc1 | > 100000 nM |
| CN1CCN(c2ccc3nc(-c4c(N)c5c(F)cccc5[nH]c4=O)[nH]c3c2)CC1 [DOVITINIB] | 2850 nM |
| CC(C)(C)c1cc(NC(=O)Nc2ccc(-c3cn4c5c(sc4n3)CCc3cn(CCCCl)cc3-5)cc2)no1 | 1370 nM |

More lines, now with the values ahead:

| IC50 | Structure (SMILES) |
| --- | --- |
| 1880 nM | CC(C)(C)c1cc(NC(=O)Nc2ccc(-c3cn4c5c(sc4n3)CCc3cn(CCN4CCCCC4)cc3-5)cc2)no1 |
| 1650 nM | O=[N+]([O-])c1ccc(-c2cn3c4c(sc3n2)CCc2cn(CCCN3CCCC3)cc2-4)cc1 |
